Data as given in ChEMBL document CHEMBL1201862, “PubChem BioAssay data set” (2004).
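Growth conditions: 96-well plates. Treatment: test compound, 48 hours, 5 concentrations. Analysis: linear interpolation between bracketing concentrations; unreached endpoints set to highest concentration. GI50 = concentration required for 50% inhibition of growth.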 Activity calls are given as the source filed them. No stated cut-off is given here; in the data, active = GI50 up to about 1.1 µM and inactive = higher.

Key:
Test in all cases: NCI-60 cell line screen, 48 h
[1] = test system: ACHN
[2] = test system: SNB-75
[3] = test system: SK-OV-3
[4] = test system: T47D
[5] = test system: OVCAR-3
[6] = test system: TK-10
[7] = test system: OVCAR-5
[8] = test system: UACC-62
[9] = test system: OVCAR-4
[10] = test system: UACC-257
[11] = test system: CAKI-1
[12] = test system: HCT-116
[13] = test system: HT-29
[14] = test system: SK-MEL-5
[15] = test system: HOP-62
[16] = test system: Malme-3M
[17] = test system: EKVX
[18] = test system: SW-620
[19] = test system: M14
[20] = test system: LOX IMVI

Measured: GI50

O=C1N[C@H]2c3c(Cl)sc(Cl)c3C(=O)[C@H]2O1
inactive: [1] 13.4 µM | [2] 19.1 µM | [3] 23.1 µM | [4] 31.6 µM | [5] 17.3 µM | [6] 64.1 µM | [7] 22.1 µM | [8] 19.1 µM | [9] 21.9 µM | [10] 16.8 µM | [11] 17.8 µM | [12] 3.64 µM | [13] 4.38 µM | [14] 24 µM | [15] 20.9 µM | [16] 10.1 µM | [17] 12.3 µM | [18] 2.84 µM | [19] 9.82 µM | [20] 3.61 µM

C[C@]12CC[C@H]3[C@@H](CC=C4C[C@@H](N5CCCC5)CC[C@@]43C)[C@@H]1C[C@H](N1CCCCC1)[C@@H]2O
inactive: [1] > 100 µM | [2] > 100 µM | [3] > 100 µM | [4] > 100 µM | [5] > 100 µM | [6] > 100 µM | [7] 99.8 µM | [8] > 100 µM | [9] > 100 µM | [10] 23.3 µM | [11] > 100 µM | [12] 91.4 µM | [13] 14.3 µM | [14] 51.1 µM | [15] > 100 µM | [16] 42.5 µM | [17] > 100 µM | [18] > 100 µM | [19] 20.3 µM | [20] 33.3 µM

NC(CCC(=O)NC(CSCC1C(=O)Nc2ccccc21)C(=O)NCC(=O)O)C(=O)O (stereo not given)
inactive: [1] 7.41 µM | [2] 2.67 µM | [3] 21 µM | [4] 9.4 µM | [5] 5.62 µM | [6] 7.52 µM | [7] 12.4 µM | [8] 8.32 µM | [9] 8.41 µM | [10] 8.11 µM | [11] 4.41 µM | [12] 4.89 µM | [13] 6.78 µM | [14] 14.8 µM | [15] 11.9 µM | [16] 6.3 µM | [17] 11.9 µM | [18] 4.28 µM | [19] 5.21 µM | [20] 1.21 µM
